Reference: patent US4720495A, “Benzo[ij]quinolizine-2-carboxylic acids useful for treating bacterial infection” (priority 1985, dated 1988)
Values after ≈ are worked out from the molar mass of the structure shown.

Tests used:
[1] = test system: Pseudomonas aeruginosa NCTC 10490; experiment: minimal inhibitory concentration, in vitro antibacterial activity; type: cell-based; conditions: NCTC10490, 37° C., 20 hours
Method: (§1) The in vitro antibacterial activities of typical examples of the present compounds [I] were evaluated in terms of the minimal inhibitory concentration defined as the lowest concentration of the compound preventing the bacterial growth. The Gram-positive bacteria used as test microorganisms included Bacillus subtilis, Staphylococcus aureus and Streptococcus faecalis, and the Gram-negative bacteria used as test microorganisms included Escherichia coli, Enterobacter cloacae, Klebsiella pneumoniae, Proteus vulgaris, Pseudomonas aeruginosa, Serratia marcescens and Salmonella enteritidis. The minimal inhibitory concentration (cultured at 37° C. for 20 hours) was determined according to the standard method prescribed by the Japan Society of Chemotherapy (CHEMOTHERAPY, Vol. 29, No. 1, p. 76, 1981). The following compounds were used as typical examples of the present compounds [I]. At the end of the chemical name of each compound, its tentative designation is given in Parentheses.
(§2) For purposes of comparison, the in vitro antibacterial activities of ofloxacin, OPC-7241 and compound α were evaluated according to the same method as described above and the test results thus obtained are also shown in Table 1.

[2] = test system: Klebsiella pneumoniae PCI 602; experiment: as above; type: cell-based; conditions: PCI602, 37° C., 20 hours
Method: as §1, §2

[3] = test system: Proteus vulgaris ATCC 13315; experiment: as above; type: cell-based; conditions: ATCC13315, 37° C., 20 hours
Method: as §1, §2

[4] = test system: Staphylococcus aureus FDA 209P JC-1; experiment: as above; type: cell-based; conditions: FDA209P, 37° C., 20 hours
Method: as §1, §2

[5] = test system: Escherichia coli NIHJ JC-2; experiment: as above; type: cell-based; conditions: NIHJJC2, 37° C., 20 hours
Method: as §1, §2

Escherichia coli CI-304 = experiment: as above; type: cell-based; conditions: CI304, 37° C., 20 hours
Method: as §1, §2

[6] = test system: Bacillus subtilis ATCC 6633; experiment: as above; type: cell-based; conditions: ATCC6633, 37° C., 20 hours
Method: as §1, §2

Enterobacter cloacae 963 = experiment: as above; type: cell-based; conditions: 37° C., 20 hours
Method: as §1, §2

[7] = test system: Serratia marcescens IAM 1184; experiment: as above; type: cell-based; conditions: IAM1184, 37° C., 20 hours
Method: as §1, §2

[8] = test system: Salmonella enteritidis G14; experiment: as above; type: cell-based; conditions: Salmonella enterica, 37° C., 20 hours
Method: as §1, §2

[9] = test system: Streptococcus faecalis AHU 1085; experiment: as above; type: cell-based; conditions: Enterococcus faecalis, AHU1085, 37° C., 20 hours
Method: as §1, §2

[10] = enteral absorbability, serum concentration after oral administration to mice; type: in vivo; conditions: mouse, 50 mg/kg orally, fasted male ICR mice; for concentration at 0.5 h: 30 min.
Method: Using male ICR mice fasted overnight (weighing 20±1 g), the enteral absorbability of some typical examples of the present compounds [I] was tested. This test was carried out by administering 50 mg/kg of each test compound orally to mice and determining its serum concentration 30 minutes, 1 hour, 2 hours and 4 hours after administration. Five mice were used for each test point. At each test point, whole blood was collected from the mice by cardiac puncture and used to prepare serum samples. Concentrations of the test compounds in serum samples were determined by the paper disc method using Escherichia coli CI-304 as the test microorganism.
For purposes of comparison, the enteral absorbability of ofloxacin and OPC-7241 was tested in the same manner as described above and the results thus obtained are also shown in Table 2.

Row | Structure (SMILES) | MIC [1] | MIC [2] | MIC [3] | MIC [4] | MIC [5] | MIC (Escherichia coli CI-304) | MIC [6] | MIC (Enterobacter cloacae 963) | MIC [7] | MIC [8] | MIC [9] | concentration at 0.5 h [10] | concentration at 1 h [10] | concentration at 2 h [10] | concentration at 4 h [10]
1 | CC1CC(=O)c2c(N3CCNCC3)c(Cl)cc3c(=O)c(C(=O)O)cn1c23 (centres unmarked) [Compound 2, 9-Chloro-5-methyl-8-(1-piperazinyl)-6,7-dihydro-1,7-dioxo-1H,5H-benzo[ij]quinolizine-2-carboxylic acid] | 0.78 µg/mL (≈ 2.08 µM) | 0.1 µg/mL (≈ 0.266 µM) | 0.1 µg/mL (≈ 0.266 µM) | 0.39 µg/mL (≈ 1.04 µM) | 0.39 µg/mL (≈ 1.04 µM) | 0.2 µg/mL (≈ 0.532 µM) | 0.39 µg/mL (≈ 1.04 µM) | 0.78 µg/mL (≈ 2.08 µM) | – | – | – | – | – | – | –
2 | CC1CN(c2c(Cl)cc3c(=O)c(C(=O)O)cn4c3c2C(=O)CC4C)CC(C)N1C (centres unmarked) [Compound 18, 9-Chloro-5-methyl-8-(3,4,5-trimethyl-1-piperazinyl) -6,7-dihydro-1,7-dioxo-1H, 5H-benzo[ij]quinolizine-2-carboxylic acid] | – | 0.1 µg/mL (≈ 0.239 µM) | – | – | 0.78 µg/mL (≈ 1.87 µM) | 0.2 µg/mL (≈ 0.479 µM) | – | 0.78 µg/mL (≈ 1.87 µM) | – | – | – | – | – | – | –
3 | CC1CC(=O)c2c(N3CCN(CCO)CC3)c(F)cc3c(=O)c(C(=O)O)cn1c23 (centres unmarked) [Compound 12, 9-Fluoro-5-methyl-8-[4-(2-hydroxyethyl) -1-piperazinyl]-6,7-dihydro-1,7-dioxo-1H, 5H-benzo[ij]quinolizine-2-carboxylic acid] | – | 0.1 µg/mL (≈ 0.248 µM) | – | – | – | 0.39 µg/mL (≈ 0.967 µM) | – | – | – | – | – | – | – | – | –
4 | CC1CN(c2c(F)cc3c(=O)c(C(=O)O)cn4c3c2C(=O)CC4C)CC(C)N1C.Cl.O (centres unmarked) [Compound 39, 9-Fluoro-5-methyl-8-(3,4,5-trimethyl-1-piperazinyl) -6,7-dihydro-1,7-dioxo-1H, 5H-benzo[ij]quinolizine-2-carboxylic acid hydrochloride monohydrate] | 3.13 µg/mL | 0.1 µg/mL | 0.2 µg/mL | 0.39 µg/mL | 0.39 µg/mL | 0.2 µg/mL | 0.2 µg/mL | 0.39 µg/mL | 1.56 µg/mL | 0.78 µg/mL | 0.78 µg/mL | – | – | – | –
5 | CC1CN(c2c(F)cc3c(=O)c(C(=O)O)cn4c3c2C=CC4C)CCN1C (centres unmarked) [Compound 25, 9-Fluoro-5-methyl-8-(3,4-dimethyl-1-piperazinyl) -1-oxo-1H, 5H-benzo[ij]quinolizine-2-carboxylic acid] | 1.56 µg/mL (≈ 4.2 µM) | 0.1 µg/mL (≈ 0.269 µM) | 0.1 µg/mL (≈ 0.269 µM) | 0.2 µg/mL (≈ 0.538 µM) | 0.39 µg/mL (≈ 1.05 µM) | 0.2 µg/mL (≈ 0.538 µM) | 0.2 µg/mL (≈ 0.538 µM) | 0.2 µg/mL (≈ 0.538 µM) | 1.56 µg/mL (≈ 4.2 µM) | 1.56 µg/mL (≈ 4.2 µM) | – | 15500 ng/mL | 14900 ng/mL | 9300 ng/mL | 5400 ng/mL
6 | CC1CC(=O)c2c(N3CCNC(C)(C)C3)c(F)cc3c(=O)c(C(=O)O)cn1c23 (centres unmarked) [Compound 15, 9-Fluoro-5-methyl-8-(3,3-dimethyl-1-piperazinyl) -6,7-dihydro-1,7-dioxo-1H, 5H-benzo[ij]quinolizine-2-carboxylic acid] | 3.13 µg/mL (≈ 8.08 µM) | 0.1 µg/mL (≈ 0.258 µM) | – | 0.39 µg/mL (≈ 1.01 µM) | 0.39 µg/mL (≈ 1.01 µM) | 0.1 µg/mL (≈ 0.258 µM) | 0.39 µg/mL (≈ 1.01 µM) | 0.39 µg/mL (≈ 1.01 µM) | – | 0.78 µg/mL (≈ 2.01 µM) | 3.13 µg/mL (≈ 8.08 µM) | 15000 ng/mL | 11700 ng/mL | 6700 ng/mL | 4300 ng/mL
7 | CCC1C=Cc2c(N3CCNC(C)C3)c(F)cc3c(=O)c(C(=O)O)cn1c23 (centres unmarked) [Compound 32, 9-Fluoro-5-ethyl-8-(3-methyl-1-piperazinyl) -1-oxo-1H, 5H-benzo[ij]quinolizine-2-carboxylic acid] | – | 0.2 µg/mL (≈ 0.538 µM) | – | – | 0.39 µg/mL (≈ 1.05 µM) | 0.2 µg/mL (≈ 0.538 µM) | – | 0.78 µg/mL (≈ 2.1 µM) | – | – | – | – | – | – | –
8 | CC1CC(=O)c2c(N3CCN(C)CC3)c(Cl)cc3c(=O)c(C(=O)O)cn1c23 (centres unmarked) [Compound 7, 9-Chloro-5-methyl-8-(4-methyl-1-piperazinyl)-6,7-dihydro-1,7-dioxo-1H, 5H-benzo[ij]quinolizine-2-carboxylic acid] | 0.78 µg/mL (≈ 2 µM) | 0.1 µg/mL (≈ 0.257 µM) | 0.1 µg/mL (≈ 0.257 µM) | 0.39 µg/mL (≈ 1 µM) | 0.1 µg/mL (≈ 0.257 µM) | 0.1 µg/mL (≈ 0.257 µM) | 0.1 µg/mL (≈ 0.257 µM) | 0.2 µg/mL (≈ 0.513 µM) | 3.13 µg/mL (≈ 8.03 µM) | 0.78 µg/mL (≈ 2 µM) | 1.56 µg/mL (≈ 4 µM) | – | – | – | –
9 | CC1C=Cc2c(N3CCNCC3)c(F)cc3c(=O)c(C(=O)O)cn1c23 (centres unmarked) [Compound 20, 9-Fluoro-5-methyl-8-(1-piperazinyl) -1-oxo-1H, 5H-benzo[ij]quinolizine-2-carboxylic acid] | 3.13 µg/mL (≈ 9.12 µM) | 0.2 µg/mL (≈ 0.582 µM) | 0.2 µg/mL (≈ 0.582 µM) | 0.78 µg/mL (≈ 2.27 µM) | 0.39 µg/mL (≈ 1.14 µM) | 0.2 µg/mL (≈ 0.582 µM) | – | 0.78 µg/mL (≈ 2.27 µM) | 3.13 µg/mL (≈ 9.12 µM) | 0.78 µg/mL (≈ 2.27 µM) | – | – | – | – | –
10 | CC1C=Cc2c(N3CCNCC3)c(Cl)cc3c(=O)c(C(=O)O)cn1c23 (centres unmarked) [Compound 22, 9-Chloro-5-methyl-8-(1-piperazinyl) -1-oxo-1H, 5H-benzo[ij]quinolizine-2-carboxylic acid] | 0.78 µg/mL (≈ 2.17 µM) | 0.1 µg/mL (≈ 0.278 µM) | 0.1 µg/mL (≈ 0.278 µM) | 0.2 µg/mL (≈ 0.556 µM) | 0.2 µg/mL (≈ 0.556 µM) | 0.1 µg/mL (≈ 0.278 µM) | 0.1 µg/mL (≈ 0.278 µM) | 0.2 µg/mL (≈ 0.556 µM) | 0.78 µg/mL (≈ 2.17 µM) | 0.78 µg/mL (≈ 2.17 µM) | 0.78 µg/mL (≈ 2.17 µM) | – | – | – | –
11 | CC1C=Cc2c(N3CCN(C)CC3)c(Cl)cc3c(=O)c(C(=O)O)cn1c23 (centres unmarked) [Compound 24, 9-Chloro-5-methyl-8-(4-methyl-1-piperazinyl)-1-oxo-1H,5H-benzo[ij]quinolizine-2-carboxylic acid] | 1.56 µg/mL (≈ 4.17 µM) | 0.1 µg/mL (≈ 0.267 µM) | 0.1 µg/mL (≈ 0.267 µM) | 0.2 µg/mL (≈ 0.535 µM) | 0.39 µg/mL (≈ 1.04 µM) | 0.2 µg/mL (≈ 0.535 µM) | 0.2 µg/mL (≈ 0.535 µM) | 0.2 µg/mL (≈ 0.535 µM) | 1.56 µg/mL (≈ 4.17 µM) | 1.56 µg/mL (≈ 4.17 µM) | 0.78 µg/mL (≈ 2.09 µM) | – | – | – | –
12 | CC1CN(c2c(F)cc3c(=O)c(C(=O)O)cn4c3c2C=CC4C)CC(C)N1C (centres unmarked) [Compound 27, 9-Fluoro-5-methyl-8-(3,4,5-trimethyl-1-piperazinyl) -1-oxo-1H, 5H-benzo[ij]quinolizine-2-carboxylic acid] | – | 0.2 µg/mL (≈ 0.519 µM) | 0.1 µg/mL (≈ 0.259 µM) | 0.78 µg/mL (≈ 2.02 µM) | – | 0.2 µg/mL (≈ 0.519 µM) | – | 0.39 µg/mL (≈ 1.01 µM) | 1.56 µg/mL (≈ 4.05 µM) | 0.78 µg/mL (≈ 2.02 µM) | – | – | – | – | –
13 | CCCN1CCN(c2c(F)cc3c(=O)c(C(=O)O)cn4c3c2C(=O)CC4C)CC1 (centres unmarked) [Compound 8, 9-Fluoro-5-methyl-8-(4-n-propyl-1-piperazinyl)-6,7-dihydro-1,7-dioxo-1H, 5H-benzo[ij]quinolizine-2-carboxylic acid] | 1.56 µg/mL (≈ 3.89 µM) | 0.1 µg/mL (≈ 0.249 µM) | – | 0.78 µg/mL (≈ 1.94 µM) | 0.39 µg/mL (≈ 0.972 µM) | 0.2 µg/mL (≈ 0.498 µM) | 0.39 µg/mL (≈ 0.972 µM) | 0.78 µg/mL (≈ 1.94 µM) | – | – | 3.13 µg/mL (≈ 7.8 µM) | – | – | – | –
14 | CCC1CC(=O)c2c(N3CCN(C)CC3)c(F)cc3c(=O)c(C(=O)O)cn1c23 (centres unmarked) [Compound 6, 9-Fluoro-5-ethyl-8-(4-methyl-1-piperazinyl) -6,7-dihydro-1,7-dioxo-1H, 5H-benzo[ij]quinolizine-2-carboxylic acid] | – | 0.2 µg/mL (≈ 0.516 µM) | – | – | 0.78 µg/mL (≈ 2.01 µM) | 0.39 µg/mL (≈ 1.01 µM) | 0.39 µg/mL (≈ 1.01 µM) | 0.78 µg/mL (≈ 2.01 µM) | – | – | – | – | – | – | –
15 | CC1C=Cc2c(N3CCNC(C)(C)C3)c(F)cc3c(=O)c(C(=O)O)cn1c23 (centres unmarked) [Compound 26, 9-Fluoro-5-methyl-8-(3,3-dimethyl-1-piperazinyl) -1-oxo-1H, 5H-benzo[ij]quinolizine-2-carboxylic acid] | 1.56 µg/mL (≈ 4.2 µM) | 0.2 µg/mL (≈ 0.538 µM) | 0.1 µg/mL (≈ 0.269 µM) | – | 0.39 µg/mL (≈ 1.05 µM) | 0.2 µg/mL (≈ 0.538 µM) | – | 0.39 µg/mL (≈ 1.05 µM) | – | 1.56 µg/mL (≈ 4.2 µM) | – | – | – | – | –
